From ChEMBL document CHEMBL1201862, “PubChem BioAssay data set” (2004)
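Values below derive from 48-hour exposures of cells grown in 96-well plates, with endpoints linearly interpolated between the two concentrations bracketing the appropriate inhibition level. GI50 marks 50% less growth.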 Activity calls are given as the source filed them. Cut-off read from the data, not from the text of the source: active = GI50 up to about 1.1 µM and inactive = higher.

Key:
Experiment in all cases: growth of human tumour cells (NCI), 48 h
NCI-H226 = tested on: NCI-H226
SK-OV-3 = tested on: SK-OV-3
RPMI-8226 = tested on: RPMI-8226
IGROV-1 = tested on: IGROV-1
UO-31 = tested on: UO-31
HOP-92 = tested on: HOP-92
A549 = tested on: A549
T47D = tested on: T47D
SF-295 = tested on: SF-295
SN12C = tested on: SN12C
SW-620 = tested on: SW-620
SK-MEL-5 = tested on: SK-MEL-5
M14 = tested on: M14
PC-3 = tested on: PC-3
UACC-62 = tested on: UACC-62
NCI-H460 = tested on: NCI-H460
LOX IMVI = tested on: LOX IMVI
KM12 = tested on: KM12
SR = tested on: SR
BT-549 = tested on: BT-549

Row | SMILES | GI50 (NCI-H226) | GI50 (SK-OV-3) | GI50 (RPMI-8226) | GI50 (IGROV-1) | GI50 (UO-31) | GI50 (HOP-92) | GI50 (A549) | GI50 (T47D) | GI50 (SF-295) | GI50 (SN12C) | GI50 (SW-620) | GI50 (SK-MEL-5) | GI50 (M14) | GI50 (PC-3) | GI50 (UACC-62) | GI50 (NCI-H460) | GI50 (LOX IMVI) | GI50 (KM12) | GI50 (SR) | GI50 (BT-549)
1 | CC(=O)Oc1c(C)cc2c(c1C)C(C)(C)CN2C(=O)C(C)(C)C | 38.5 µM (inactive) | > 100 µM (inactive) | 53.8 µM (inactive) | > 100 µM (inactive) | 41.8 µM (inactive) | 20.1 µM (inactive) | 83.8 µM (inactive) | 31.6 µM (inactive) | > 100 µM (inactive) | > 100 µM (inactive) | > 100 µM (inactive) | 42.3 µM (inactive) | 65.9 µM (inactive) | 35.1 µM (inactive) | > 100 µM (inactive) | > 100 µM (inactive) | > 100 µM (inactive) | > 100 µM (inactive) | – | –
2 | CCOc1cc(/C=C2\N=C(c3ccccc3)N(c3nc4ccccc4s3)C2=O)ccc1O | 59.8 µM (inactive) | > 100 µM (inactive) | 21.6 µM (inactive) | 28.6 µM (inactive) | 49 µM (inactive) | > 100 µM (inactive) | – | 40.6 µM (inactive) | 80.2 µM (inactive) | – | 47.9 µM (inactive) | 18.5 µM (inactive) | 44.9 µM (inactive) | 27.9 µM (inactive) | – | 29.2 µM (inactive) | 37.2 µM (inactive) | 48.8 µM (inactive) | 29.9 µM (inactive) | –
3 | O=C(O)CC1C(=O)OC2C3COC(=O)c4cc(O)c(O)c(O)c4-c4c(cc(O)c(O)c4O)C(=O)OC2C(OC(=O)c2cc(O)c(O)c4c2C1C(O)C(=O)O4)C(OC(=O)c1cc(O)c(O)c(O)c1)O3 (stereo not drawn) | 30.4 µM (inactive) | 18.5 µM (inactive) | 36.9 µM (inactive) | 30.2 µM (inactive) | 27.2 µM (inactive) | 16.7 µM (inactive) | 21.6 µM (inactive) | 59.8 µM (inactive) | 27.8 µM (inactive) | 17.5 µM (inactive) | 28.8 µM (inactive) | > 100 µM (inactive) | 27.7 µM (inactive) | 33.8 µM (inactive) | – | 16 µM (inactive) | 14 µM (inactive) | 17 µM (inactive) | 33.7 µM (inactive) | –
4 | c1ccc2c(c1)-c1ccccc1C2NC1=NCCO1 | 23.8 µM (inactive) | 31.4 µM (inactive) | 28.4 µM (inactive) | 16.4 µM (inactive) | 24.1 µM (inactive) | 13.9 µM (inactive) | 32.4 µM (inactive) | 39.4 µM (inactive) | 31.4 µM (inactive) | 33.7 µM (inactive) | 54.2 µM (inactive) | 15.7 µM (inactive) | 17.2 µM (inactive) | 20.5 µM (inactive) | 20.5 µM (inactive) | 14 µM (inactive) | 20.5 µM (inactive) | 14.2 µM (inactive) | 30.3 µM (inactive) | –
5 | C[C@@H](c1ccccc1)N(CC#N)[C@H]1CCC[C@]1(O)/C=C/c1ccc2c(c1)OCO2 | > 25 µM (inactive) | > 25 µM (inactive) | > 25 µM (inactive) | > 25 µM (inactive) | > 25 µM (inactive) | > 25 µM (inactive) | > 25 µM (inactive) | > 25 µM (inactive) | > 25 µM (inactive) | > 25 µM (inactive) | – | > 25 µM (inactive) | > 25 µM (inactive) | > 25 µM (inactive) | 3.59 µM (inactive) | > 25 µM (inactive) | > 25 µM (inactive) | > 25 µM (inactive) | > 25 µM (inactive) | –
6 | N#Cc1nc(CCC(C(=O)O)N2C(=O)c3ccccc3C2=O)oc1N (stereo not drawn) | > 100 µM (inactive) | > 100 µM (inactive) | > 100 µM (inactive) | > 100 µM (inactive) | > 100 µM (inactive) | > 100 µM (inactive) | 41.7 µM (inactive) | > 100 µM (inactive) | > 100 µM (inactive) | > 100 µM (inactive) | > 100 µM (inactive) | > 100 µM (inactive) | > 100 µM (inactive) | > 100 µM (inactive) | > 100 µM (inactive) | > 100 µM (inactive) | > 10 µM (inactive) | > 100 µM (inactive) | > 100 µM (inactive) | –
7 | O=c1[nH]c(=O)n(C2OC(COP(=O)(O)OP(=O)(O)OC3OC(CO)C(O)C(O)C3O)C(O)C2O)cc1F (stereo not drawn) | 0.148 µM (active) | 0.975 µM (active) | < 0.01 µM (active) | 0.125 µM (active) | 0.04 µM (active) | 1.12 µM (active) | 0.0149 µM (active) | – | 0.127 µM (active) | 0.0809 µM (active) | 0.0504 µM (active) | 0.407 µM (active) | 0.234 µM (active) | – | 0.307 µM (active) | < 0.014 µM (active) | 0.0314 µM (active) | 0.0317 µM (active) | 0.0418 µM (active) | –
8 | O=C1N(c2ccc(Cl)cc2)C(=O)C2(SC=NN2Cc2ccccc2)N1c1ccc(Cl)cc1 (stereo not drawn) | > 100 µM (inactive) | > 100 µM (inactive) | 8.34 µM (inactive) | > 100 µM (inactive) | > 100 µM (inactive) | > 100 µM (inactive) | 96.4 µM (inactive) | – | > 10 µM (inactive) | > 100 µM (inactive) | > 100 µM (inactive) | > 100 µM (inactive) | > 100 µM (inactive) | – | > 100 µM (inactive) | > 100 µM (inactive) | > 100 µM (inactive) | > 100 µM (inactive) | 9.95 µM (inactive) | –
9 | COc1ccc2nc3ccccc3c(NCCCCN(CCCl)CCCl)c2c1 | 0.368 µM (active) | 1.22 µM (inactive) | < 0.0476 µM (active) | 0.227 µM (active) | 0.443 µM (active) | 0.527 µM (active) | 0.162 µM (active) | 1.26 µM (inactive) | 0.0863 µM (active) | 0.0843 µM (active) | 0.0188 µM (active) | 0.292 µM (active) | 0.22 µM (active) | 0.316 µM (active) | 0.245 µM (active) | < 0.0352 µM (active) | 0.0596 µM (active) | 0.128 µM (active) | 0.04 µM (active) | –
10 | CCOC(=O)c1cnc2oc3ccc(O)cc3c2c1-c1ccccc1 | 32.2 µM (inactive) | 15.8 µM (inactive) | 8.73 µM (inactive) | – | – | 16.3 µM (inactive) | 32.4 µM (inactive) | > 100 µM (inactive) | 37.2 µM (inactive) | 37.9 µM (inactive) | > 100 µM (inactive) | 29.2 µM (inactive) | 81.3 µM (inactive) | 18 µM (inactive) | 12.8 µM (inactive) | 13.2 µM (inactive) | 21.6 µM (inactive) | – | 22.6 µM (inactive) | –
11 | O=C1CN(c2cccc(Cl)c2)C(=O)CN1CCN1CC(=O)N(c2cccc(Cl)c2)CC1=O | – | > 100 µM (inactive) | > 100 µM (inactive) | > 100 µM (inactive) | > 100 µM (inactive) | > 100 µM (inactive) | > 100 µM (inactive) | – | > 100 µM (inactive) | > 100 µM (inactive) | > 100 µM (inactive) | > 100 µM (inactive) | > 100 µM (inactive) | > 100 µM (inactive) | > 100 µM (inactive) | > 100 µM (inactive) | – | > 100 µM (inactive) | > 100 µM (inactive) | > 100 µM (inactive)
12 | C/C(=N\NC(=S)NC(CCC(=O)O)C(=O)O)c1ccccn1 (stereo not drawn) | > 100 µM (inactive) | > 100 µM (inactive) | > 100 µM (inactive) | > 100 µM (inactive) | > 100 µM (inactive) | > 100 µM (inactive) | > 100 µM (inactive) | – | > 100 µM (inactive) | > 100 µM (inactive) | > 100 µM (inactive) | > 100 µM (inactive) | > 100 µM (inactive) | – | > 100 µM (inactive) | > 100 µM (inactive) | > 100 µM (inactive) | > 100 µM (inactive) | > 100 µM (inactive) | –
13 | Cc1ccc(NC(=S)N/N=C2\C(=O)Nc3ccccc32)cc1 | 92.3 µM (inactive) | > 100 µM (inactive) | > 100 µM (inactive) | 84.7 µM (inactive) | 78.5 µM (inactive) | > 100 µM (inactive) | > 100 µM (inactive) | > 100 µM (inactive) | 49.9 µM (inactive) | > 100 µM (inactive) | > 100 µM (inactive) | 59.7 µM (inactive) | 94 µM (inactive) | > 100 µM (inactive) | > 100 µM (inactive) | 83 µM (inactive) | 66.5 µM (inactive) | > 100 µM (inactive) | 87.7 µM (inactive) | –
14 | CC(C)C1=CC23CCC4C(C)(C(=O)O)CCCC4(C)C2CC1C1C(=O)N(c2ccccc2)C(=O)C13 (stereo not drawn) | 15.5 µM (inactive) | 56.4 µM (inactive) | > 100 µM (inactive) | 37.2 µM (inactive) | 43.7 µM (inactive) | 32.7 µM (inactive) | 31.6 µM (inactive) | – | 51.2 µM (inactive) | 45.9 µM (inactive) | 54 µM (inactive) | 44.2 µM (inactive) | 40.5 µM (inactive) | – | 38.6 µM (inactive) | 38.9 µM (inactive) | 54.1 µM (inactive) | 27.9 µM (inactive) | > 100 µM (inactive) | –
15 | NCCC(=O)N[C@@H](Cc1cc(O)c(O)c(SCC(NC(=O)CC[C@H](N)C(=O)O)C(=O)NCC(=O)O)c1)C(=O)O (stereo partly drawn) | > 50 µM (inactive) | > 50 µM (inactive) | > 50 µM (inactive) | > 50 µM (inactive) | > 50 µM (inactive) | > 50 µM (inactive) | > 50 µM (inactive) | – | > 50 µM (inactive) | > 50 µM (inactive) | > 50 µM (inactive) | – | > 50 µM (inactive) | > 50 µM (inactive) | > 50 µM (inactive) | > 50 µM (inactive) | – | > 50 µM (inactive) | – | > 50 µM (inactive)
